{"source": "patent US8664380B2", "about": "“Heterocyclic compound and use thereof” (Takeda Pharmaceutical Company Limited, priority 2008, dated 2014)", "key": {"[1]": {"test_system": "plasma renin activity", "test": "Ex vivo plasma renin activity (PRA) test after oral administration", "type": "in vivo, Macaca fascicularis", "conditions": "for inhibition at 1 mg/kg: Macaca fascicularis, po, 4 h, read-out: Macaca fascicularis plasma renin activity, PPA inhibitory activity (%, n = 3-7); for Macaca fascicularis plasma renin activity, PPA inhibitory activity (%, n = 3-7): male macaca fascicularis, 1 mg/kg orally in 0.5% methylcellulose, plasma 4 hr after administration, amended with vehicle group", "protocol": "Male macaca fascicularis was used. […] PRA was calculated by the following formula."}, "[2]": {"molecular_target": "T1, Human renin (Homo sapiens, UniProt P00797)", "T1 sequence (P00797 67-406)": "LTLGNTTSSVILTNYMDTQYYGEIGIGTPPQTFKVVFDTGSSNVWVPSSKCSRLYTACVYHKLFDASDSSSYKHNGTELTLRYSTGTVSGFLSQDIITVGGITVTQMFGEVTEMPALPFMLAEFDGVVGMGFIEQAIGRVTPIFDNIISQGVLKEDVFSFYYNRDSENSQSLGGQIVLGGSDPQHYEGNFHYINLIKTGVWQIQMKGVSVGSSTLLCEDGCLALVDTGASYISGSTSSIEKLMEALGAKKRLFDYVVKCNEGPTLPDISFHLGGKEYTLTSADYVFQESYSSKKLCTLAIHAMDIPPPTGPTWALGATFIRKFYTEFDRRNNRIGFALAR", "test": "Human renin inhibition; angiotensin I formed from angiotensinogen quantified by EIA", "conditions": "for inhibition at 0.1 µM: read-out: Human renin inhibitory activity, inhibitory activity (%) at 0.1 μM; for Human renin inhibitory activity, inhibitory activity (%) at 0.1 μM: 0.1 μM test compound, substrate human angiotensinogen, 37° C. 30 min", "method": "As a substrate for renin activity measurement, the angiotensinogen mentioned in (5) above was used. 1 μl each of the test compound (containing 100% DMSO) was added to each well of a 384-well plate (ABgene). Renin was diluted with a buffer solution for reaction (20 mM sodium phosphate (pH 7.4)) to a concentration of 57 pM, and 14 μl each of the dilution was added to each well. The dilution was left to stand at 37° C. for 10 min, and then 5 μl of each of a 6 μM solution of substrate angiotensinogen was added to each well to initiate the reaction. […] The amount of angiotensin I produced by an enzyme reaction was quantified by Enzyme Immuno Assay (EIA) described below.\nAnti-angiotensin I antibody (Peninsula Laboratories Inc.) diluted 5,000-fold with PBS was added to each well of a 384 well black plate (Nalge Nunc International Co., Ltd.) by 25 μl, and left standing overnight at 4° C. to immobilize the antibody in the plate. The antibody solution was removed, PBS solution (100 μl) containing 1% BSA was added to each well, and the mixture was left standing at room temperature for 2 hr for blocking. The blocking solution was removed, and each well was washed 5 times with 100 μl of 0.05% Tween20-PBS. […] Then, a biotinated angiotensin I solution (AnaSpec, 15 μl) prepared to 1.6 nM with a buffer [20 mM tris-hydrochloric acid (pH 7.4), 150 mM sodium chloride, 0.01% BSA, 0.05% Tween20] was added to each well, mixed with a plate mixer and left standing at room temperature for 1 hr. The solutions were removed from each well, and each well was washed 5 times with 100 μl of 0.05% Tween20-PBS. Horseradish peroxydase Streptavidin (PIERCE Biotechnology inc., 25 μl) diluted to 100 ng/ml with a buffer [20 mM tris-hydrochloric acid (pH 7.4), 150 mM sodium chloride, 0.1% BSA, 0.05% Tween 20] was added to each well and the mixture was left standing at room temperature for 30 min. The solutions were removed from each well, and each well was washed 5 times with 100 μl of 0.05% Tween20-PBS. SuperSignal ELISA femto Maximum Sensitivity Substrate (PIERCE Biotechnology Inc.) was added by 25 μl and luminescence intensity was measured by EnVision (Perkin Elmer Inc.). An analytical curve was drawn from the luminescence intensity of wells containing an angiotensin I standard solution, and the amount of angiotensin I produced by an enzyme reaction was calculated and used as an index of renin activity."}}, "note": "Structures can show the parent of a compound that is named as a salt.", "data": [{"compound": "COCCCCn1c(C(=O)N(CC(C)C)[C@@H]2CNC[C@H](CO)C2)nc2ccccc21", "note": "[Example 40, N-[(3S,5R)-5-(hydroxymethyl)piperidin-3-yl]-1-(4-methoxybutyl)-N-(2-methylpropyl)-1H-benzimidazole-2-carboxamide dihydrochloride]", "values": [{"measurement": "inhibition at 1 mg/kg", "setting": "[1]", "value": 75, "unit": "%"}, {"measurement": "inhibition at 0.1 µM", "setting": "[2]", "value": 97, "unit": "%"}]}, {"compound": "COCCCCn1c(C(=O)N(CC(C)C)[C@@H]2CNC[C@H](C(O)COC)C2)nc2ccccc21", "note": "(stereo partly drawn) [Example 48, N-[(3S,5R)-5-(1-hydroxy-2-methoxyethyl)piperidin-3-yl]-1-(4-methoxybutyl)-N-(2-methylpropyl)-1H-benzimidazole-2-carboxamide dihydrochloride]", "values": [{"measurement": "inhibition at 1 mg/kg", "setting": "[1]", "value": 78, "unit": "%"}, {"measurement": "inhibition at 0.1 µM", "setting": "[2]", "value": 97, "unit": "%"}]}, {"compound": "COCCCCn1c(C(=O)N(CC(C)C)[C@@H]2CNC[C@H]([C@@H](O)COC)C2)nc2ccccc21", "note": "[Example 73-1, N-{(3S,5R)-5-[(1R)-1-hydroxy-2-methoxyethyl]piperidin-3-yl}-1-(4-methoxybutyl)-N-(2-methylpropyl)-1H-benzimidazole-2-carboxamide dihydrochloride]", "values": [{"measurement": "inhibition at 1 mg/kg", "setting": "[1]", "value": 77, "unit": "%"}, {"measurement": "inhibition at 0.1 µM", "setting": "[2]", "value": 96, "unit": "%"}]}, {"compound": "COCCCCn1c(C(=O)N(CC(C)C)[C@@H]2CNC[C@H]([C@H](O)COC)C2)nc2ccccc21", "note": "[Example 73-2, N-{(3S,5R)-5-[(1S)-1-hydroxy-2-methoxyethyl]piperidin-3-yl}-1-(4-methoxybutyl)-N-(2-methylpropyl)-1H-benzimidazole-2-carboxamide dihydrochloride]", "values": [{"measurement": "inhibition at 1 mg/kg", "setting": "[1]", "value": 90, "unit": "%"}, {"measurement": "inhibition at 0.1 µM", "setting": "[2]", "value": 96, "unit": "%"}]}, {"compound": "COCCCCc1c(C(=O)N(CC(C)C)[C@@H]2CNC[C@H](C(=O)N3CCOCC3)C2)nnn1-c1ccccc1F", "note": "[Example 233, 1-(2-fluorophenyl)-5-(4-methoxybutyl)-N-(2-methylpropyl)-N-[(3S,5R)-5-(morpholin-4-ylcarbonyl)piperidin-3-yl]-1H-1,2,3-triazole-4-carboxamide hydrochloride]", "values": [{"measurement": "inhibition at 1 mg/kg", "setting": "[1]", "value": 67, "unit": "%"}, {"measurement": "inhibition at 0.1 µM", "setting": "[2]", "value": 97, "unit": "%"}]}, {"compound": "COCCCCc1c(C(=O)N(CC(C)C)[C@@H]2CNC[C@H](C(=O)N3CCOCC3)C2)nnn1-c1ccccc1Cl", "note": "[Example 235, 1-(2-chlorophenyl)-5-(4-methoxybutyl)-N-(2-methylpropyl)-N-[(3S,5R)-5-(morpholin-4-ylcarbonyl)piperidin-3-yl]-1H-1,2,3-triazole-4-carboxamide hydrochloride]", "values": [{"measurement": "inhibition at 1 mg/kg", "setting": "[1]", "value": 62, "unit": "%"}, {"measurement": "inhibition at 0.1 µM", "setting": "[2]", "value": 97, "unit": "%"}]}, {"compound": "N-{(3S,5R)-5-[(1R)-1-hydroxyethyl]piperidin-5-yl}-1-(4-methoxybutyl)-N-(2-methylpropyl)-1H-benzimidazole-2-carboxamide carboxamide dihydrochloride [Example 74-2]", "values": [{"measurement": "Macaca fascicularis plasma renin activity, PPA inhibitory activity (%, n = 3-7)", "setting": "[1]", "value": 54, "unit": "%"}, {"measurement": "Human renin inhibitory activity, inhibitory activity (%) at 0.1 μM", "setting": "[2]", "value": 96, "unit": "%"}]}, {"compound": "N-{(3S,5R)-5-[(1S)-1-hydroxyethyl]piperidin-5-yl}-1-(4-methoxybutyl)-N-(2-methylpropyl)-1H-benzimidazole-2-carboxamide dihydrochloride [Example 74-1]", "values": [{"measurement": "Macaca fascicularis plasma renin activity, PPA inhibitory activity (%, n = 3-7)", "setting": "[1]", "value": 90, "unit": "%"}, {"measurement": "Human renin inhibitory activity, inhibitory activity (%) at 0.1 μM", "setting": "[2]", "value": 94, "unit": "%"}]}, {"compound": "N-{(3S, 5R)-5-[(1R)-1-hydroxypropyl]piperidin-5-yl}-1-(4-methoxybutyl)-N-(2-methylpropyl)-1H-benzimidazole-2-carboxamide dihydrochloride [Example 75-2]", "values": [{"measurement": "Macaca fascicularis plasma renin activity, PPA inhibitory activity (%, n = 3-7)", "setting": "[1]", "value": 71, "unit": "%"}, {"measurement": "Human renin inhibitory activity, inhibitory activity (%) at 0.1 μM", "setting": "[2]", "value": 90, "unit": "%"}]}, {"compound": "N-{(3S, 5R)-5-[(1S)-1-hydroxypropyl]piperidin-5-yl}-1-(4-methoxybutyl)-N-(2-methylpropyl)-1H-benzimidazole-2-carboxamide dihydrochloride [Example 75-1]", "values": [{"measurement": "Macaca fascicularis plasma renin activity, PPA inhibitory activity (%, n = 3-7)", "setting": "[1]", "value": 86, "unit": "%"}, {"measurement": "Human renin inhibitory activity, inhibitory activity (%) at 0.1 μM", "setting": "[2]", "value": 95, "unit": "%"}]}]}
